Structures are written as SMILES. A value given as a limit tells only on which side of the number the result lay.

The target of this assay is T1, Alkaline phosphatase, tissue-nonspecific isozyme (Homo sapiens, UniProt P05186).
T1 sequence (P05186 whole entry): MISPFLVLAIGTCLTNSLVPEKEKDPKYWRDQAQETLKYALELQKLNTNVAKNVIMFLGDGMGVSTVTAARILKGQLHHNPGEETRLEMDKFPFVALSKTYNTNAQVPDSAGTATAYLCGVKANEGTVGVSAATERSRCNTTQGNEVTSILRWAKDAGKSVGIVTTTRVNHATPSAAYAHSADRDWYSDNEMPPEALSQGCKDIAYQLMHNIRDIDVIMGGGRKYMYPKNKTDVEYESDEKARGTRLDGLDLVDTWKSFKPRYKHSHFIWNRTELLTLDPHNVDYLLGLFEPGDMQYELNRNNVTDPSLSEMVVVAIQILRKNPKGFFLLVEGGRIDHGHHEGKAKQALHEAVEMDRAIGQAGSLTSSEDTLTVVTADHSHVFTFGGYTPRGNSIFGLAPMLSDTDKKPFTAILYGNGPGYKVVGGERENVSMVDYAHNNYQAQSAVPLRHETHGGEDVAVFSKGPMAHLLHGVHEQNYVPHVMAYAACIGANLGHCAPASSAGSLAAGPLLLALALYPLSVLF
Briefly: TNAP enzyme activators, dose response, selectivity assay for human IAP activator project, biochemical, TNAP isozyme, human IAP uHTS hits (AID 488886).

For the compound `C=c1[nH]n(-c2nc3ccccc3[nH]2)c(=O)c1=CN(C)C` [(4E)-2-(1H-benzimidazol-2-yl)-4-(dimethylaminomethylidene)-5-methyl-pyrazol-3-one], it took 11.4 µM to reach a half-maximal effect (EC50).
For `O=c1c2ccccc2nc(N=NCc2c(O)ccc3ccccc23)n1O` [SMR000145705] the value was > 100 µM; for `CCOC(=O)c1c(C)[nH]c(C(=O)N/N=C/C2C=C([N+](=O)[O-])C=CC2=O)c1C` (stereo not drawn) [ethyl 2,4-dimethyl-5-[[[(E)-(3-nitro-6-oxocyclohexa-2,4-dien-1-ylidene)methyl]amino]carbamoyl]-1H-pyrrole-3-carboxylate], 22.3 µM; for `O=Nc1[nH]c(=O)c(CC(=O)c2ccccc2)nc1NO` [SMR000539633], > 100 µM.
In the case of `Cc1cc(Br)ccc1SCC(=O)OCC(=O)C(C#N)c1nc2ccccc2[nH]1` (stereo not drawn) [2-[(4-bromo-2-methylphenyl)thio]acetic acid [3-cyano-3-(1,3-dihydrobenzimidazol-2-ylidene)-2-oxopropyl] ester], the EC50 (commonly the concentration giving half of the maximal effect) came out at 24.1 µM.
With `COc1cccc(C=NNC(=O)c2[nH][nH]c(=O)c2C)c1O` [N'-[(E)-(5-methoxy-6-oxidanylidene-cyclohexa-2,4-dien-1-ylidene)methyl]-4-methyl-5-oxidanylidene-1,4-dihydropyrazole-3-carbohydrazide], the EC50 was 8.88 µM.
In the case of `CCc1ccc(CN=Nc2ncnc3nc[nH]c23)cc1` [MLS000419199] it was 17.7 µM; in that of `Cn1c(C(C#N)C(=O)c2ccc(Br)s2)nc2ccccc21` (stereo not drawn) [MLS001167394], 45 µM.

Values taken from BindingDB's records for doi:10.7270/Q24Q7SF3 (Burnham Center For Chemical Genomics, 2010).
